Patent US6376521B1, “A3 adenosine receptor antagonists” (The United States of America as represented by the …, priority 1998, dated 2002)
Where two headings read alike, the source gives them in different places.

Experiments:
rat A3 receptors = target: T1, rat A3 receptors (Rattus norvegicus, UniProt P28647); experiment: Displacement of specific [125I]AB-MECA binding at rat A3 receptors stably expressed in CHO cells; settings: for rA3/hA3: ratio of affinities at rat vs. human A3 receptors; for rA1/rA3: ratio of affinities rat A1 vs rat A3
T1 construct: expressed in transfected cells
T1 sequence (P28647 1-320): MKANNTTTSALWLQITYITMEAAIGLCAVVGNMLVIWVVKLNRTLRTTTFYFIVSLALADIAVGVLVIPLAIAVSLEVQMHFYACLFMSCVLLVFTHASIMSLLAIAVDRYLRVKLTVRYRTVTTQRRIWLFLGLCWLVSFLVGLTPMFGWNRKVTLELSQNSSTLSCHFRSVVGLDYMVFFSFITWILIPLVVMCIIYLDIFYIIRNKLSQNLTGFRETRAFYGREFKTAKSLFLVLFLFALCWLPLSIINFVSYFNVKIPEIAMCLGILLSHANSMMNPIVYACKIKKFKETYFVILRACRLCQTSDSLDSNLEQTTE

A2A adenosine receptors = target: T2, A2A adenosine receptors (Rattus norvegicus, UniProt P30543); experiment: Displacement of specific [3H]CGS 21680 binding in rat striatal membranes; settings: for Ki: [3H]CGS 21680, rat striatal membranes, n = 3-6, read-out: rA2A Ki ± S.E.M.; for rA2A displacement of specific binding (class d): Table 2; for rA2A displacement of specific binding (class d) / inhibition at 100 µM: at 10^−4 M; for inhibition at 100 µM: read-out: rA2A % inhibition (percentage of specific binding displaced)
T2 construct: from tissue
T2 sequence (P30543 whole entry): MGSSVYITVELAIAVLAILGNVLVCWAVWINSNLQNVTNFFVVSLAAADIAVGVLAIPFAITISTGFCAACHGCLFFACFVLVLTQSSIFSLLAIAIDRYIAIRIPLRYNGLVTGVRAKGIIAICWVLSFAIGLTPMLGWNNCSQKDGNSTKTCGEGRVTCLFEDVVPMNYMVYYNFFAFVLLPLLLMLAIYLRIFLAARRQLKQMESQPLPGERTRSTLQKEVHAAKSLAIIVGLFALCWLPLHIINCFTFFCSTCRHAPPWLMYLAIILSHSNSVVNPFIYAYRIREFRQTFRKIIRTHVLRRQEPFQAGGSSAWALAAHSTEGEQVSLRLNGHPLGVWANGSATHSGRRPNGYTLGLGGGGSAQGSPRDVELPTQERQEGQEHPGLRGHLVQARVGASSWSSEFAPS

human A3 receptors = target: T3, human A3 receptors (Homo sapiens, UniProt P0DMS8); experiment: Displacement of specific [125I]AB-MECA binding at human A3 receptors expressed in HEK cells, in membranes; settings: for Ki: [125I]AB-MECA, HEK cell membranes, n = 3-4, read-out: hA3 Ki ± S.E.M.; for rA1/hA3: ratio of affinities rat A1 vs human A3
T3 construct: expressed in transfected cells
T3 sequence (P0DMS8 1-318): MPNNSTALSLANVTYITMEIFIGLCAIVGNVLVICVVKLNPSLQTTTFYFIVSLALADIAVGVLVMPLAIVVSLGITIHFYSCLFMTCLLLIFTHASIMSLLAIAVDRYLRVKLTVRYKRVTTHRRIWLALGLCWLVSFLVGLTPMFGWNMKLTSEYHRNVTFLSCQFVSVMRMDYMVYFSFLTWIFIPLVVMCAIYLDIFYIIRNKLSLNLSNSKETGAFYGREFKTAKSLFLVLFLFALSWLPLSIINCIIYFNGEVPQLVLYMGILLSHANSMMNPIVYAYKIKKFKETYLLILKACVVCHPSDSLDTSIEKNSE

A1 adenosine receptors = target: T4, A1 adenosine receptors (Rattus norvegicus, UniProt P25099); experiment: Displacement of specific [3H]R-PIA binding in rat brain membranes; settings: for Ki: [3H]R-PIA, rat brain membranes, n = 3-5, read-out: rA1 Ki ± S.E.M.; for inhibition at 100 µM: read-out: rA1 % inhibition (percentage of specific binding displaced)
T4 construct: from tissue
T4 sequence (P25099 1-326): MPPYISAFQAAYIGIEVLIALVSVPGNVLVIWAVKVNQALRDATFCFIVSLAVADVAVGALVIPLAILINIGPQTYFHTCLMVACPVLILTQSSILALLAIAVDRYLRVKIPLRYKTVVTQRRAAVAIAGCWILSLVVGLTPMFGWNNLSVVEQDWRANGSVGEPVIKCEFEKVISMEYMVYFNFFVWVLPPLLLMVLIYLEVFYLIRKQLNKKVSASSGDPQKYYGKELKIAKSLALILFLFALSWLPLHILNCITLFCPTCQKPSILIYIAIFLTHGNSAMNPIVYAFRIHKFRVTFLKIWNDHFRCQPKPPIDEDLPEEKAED

[1] = Table 4, [125I]AB-MECA, CHO cells, n = 3-5, read-out: rA3 Ki

Row | SMILES | Ki (rat A3 receptors; [1]) [µM] | rA3/hA3 (rat A3 receptors; Table 4) | rA1/rA3 (rat A3 receptors; Table 4) | Ki (A2A adenosine receptors; Table 2, compounds 33-58) [µM] | Ki (human A3 receptors; Table 2, compounds 33-58) [µM] | rA1/hA3 (human A3 receptors; Table 2) | Ki (A1 adenosine receptors; Table 2, compounds 33-58) [µM] | also measured
1 | CCOC(=O)c1c(C2CCCC2)nc(CC)c(C(=O)SCC)c1CC [Compound 52, 5-Ethyl 2,4-diethyl-3-(ethylsulfanylcarbonyl)-6-cyclopentylpyridine-5-carboxylate] | 2.8 ± 0.22 | 0.83 | >20 | 26.1 ± 6.2 | 4.01 ± 2.49 | 14 | 55.3 ± 14.7 | –
2 | CCOC(=O)c1c(-c2ccccc2)nc(C)c(C(=O)SCC)c1CC [Compound 36, 5-Ethyl 2-methyl-4-ethyl-3-(ethylsulfanylcarbonyl)-6-phenylpyridine-5-carboxylate] | 1.47 ± 0.34 | 34 | 10 | 14.9 ± 4.1 | 0.0429 ± 0.0088 | 340 | 14.8 ± 3.5 | –
3 | CCCOC(=O)c1c(-c2cccc(Cl)c2)nc(CC)c(C(=O)SCCC)c1CC [Compound 54, 5-Propyl 2,4-diethyl-3-propylsulfanylcarbonyl-6-(m-chlorophenyl)pyridine-5-carboxylate] | – | – | – | 24.1 ± 7.9 | – | – | 41.4 ± 11.9 | Ki (rat A3 receptors): 0.814 ± 0.037 µM
4 | CCSC(=O)C1=C(C)NC(c2ccccc2)=C(C(=O)OCc2ccccc2)C1CC (racemic) [Compound 65, 5-Benzyl 2-methyl-4ethyl-6-phenyl-3-(ethylsulfanylcarbonyl)-1,4-(±)-dihydropyridine-5-carboxylate] | 2.8 ± 0.28 | 1.7 | >20 | – | – | – | – | Ki (A2A adenosine receptors; Table 3): 14.3 ± 4.2 µM; Ki (human A3 receptors; Table 3): 1.65 ± 0.4 µM; rA1/hA3 (human A3 receptors; Table 3): >50; inhibition at 100 µM (A1 adenosine receptors; Table 3, at 10^−4 M): 45 ± 2%
5 | CCOC(=O)C1=C(C)NC(c2ccccc2)=C(C(=O)OCC)C1C=O (racemic) [Compound 67, 3,5-Diethyl 2-methyl-6-phenyl-4-formyl-1,4(±)-dihydropyridine-3,5-dicarboxylate] | – | – | – | – | – | – | – | inhibition at 100 µM (A2A adenosine receptors; Table 3): 32 ± 15%; Ki (human A3 receptors; Table 3): 15.6 ± 5.4 µM; rA1/hA3 (human A3 receptors; Table 3): >6; inhibition at 100 µM (A1 adenosine receptors; Table 3, at 10^−4 M): 26 ± 6%
6 | CCOC(=O)C1=C(c2ccccc2)NC(C)=C(C(=O)SCC)C1CC (racemic) [Compound 62, 5-Ethel 2-methyl-4ethyl-6-phenyl-3-(ethylsulfanylcarbonyl)-1,4-(±)-dihydropyridine-5-carboxylate] | 4.6 ± 0.38 | – | – | – | – | – | – | Ki (A2A adenosine receptors; Table 3): 54.8 ± 18.8 µM; Ki (A1 adenosine receptors; Table 3): 35.4 ± 4.5 µM
7 | CCOC(=O)c1c(C)nc(-c2ccccc2)c(C(=O)OCC)c1C(OC)OC [Compound 40, 3,5-Diethyl 2-methyl-4-(dimethoxymethyl)-6-phenylpyridine-3,5-dicarboxylate] | – | – | – | 2.88 ± 0.61 | 0.783 ± 0.154 | 2.5 | 1.95 ± 0.43 | –
8 | CCCSC(=O)c1c(CC)nc(-c2ccccc2)c(C(=O)OCC)c1CC [Compound 53, 5-Ethyl 2,4-diethyl-3-propylsulfanylcarbonyl-6-phenylpyridine-5-carboxylate] | 0.294 ± 0.006 | 18 | 28 | 15.7 ± 4.4 | 0.0159 ± 0.0054 | 520 | 8.22 ± 1.21 | –
9 | CCOC(=O)c1c(CC)nc(-c2ccccc2)c(C(=O)OCC)c1C [Compound 46, 3,5-Diethyl 2-ethyl-4-methyl-6-phenylpyridine-3,5-dicarboxylate] | – | – | – | 13.4 ± 4.2 | 0.121 ± 0.008 | 85 | 10.3 ± 1.7 | –
10 | CCCC1C(C(=O)SCC)=C(C)NC(c2ccccc2)=C1C(=O)OCC (racemic) [Compound 64, 5-Ethyl 2-methyl-4-propyl-6-phenyl-3-(ethylsulfanylcarbonyl)-1,4-(±)-dihydropyridine-5-carboxylate] | 3.1 ± 0.78 | – | – | – | – | – | – | inhibition at 100 µM (A2A adenosine receptors; Table 3): 29 ± 10%; inhibition at 100 µM (A1 adenosine receptors; Table 3, at 10^−4 M): 48 ± 5%
11 | CCOC(=O)c1c(-c2ccccc2)nc(C)c(C(=O)SCCOC)c1CC [Compound 37, 5-Ethyl 2-methyl-4-ethyl-3-[2-methoxy-(ethylsulfanylcarbonyl)]-6-phenylpyridine-5-carboxylate] | – | – | – | 7.98 ± 1.36 | 0.165 ± 0.012 | >500 | – | rA1 percentage of specific binding displaced (A1 adenosine receptors; Table 2, at 10^−4 M): 36 ± 11% (10^−4)
12 | CCCOC(=O)c1c(-c2ccccc2)nc(CC)c(C(=O)SCCOC2CCCCO2)c1CCC (stereo not shown) [Compound 13] | – | – | – | – | – | >20 | – | rA2A displacement of specific binding (class d) (A2A adenosine receptors): d (10^−4) (Displacement of <10% of specific binding at the indicated concentration (M).); rA1 percentage of specific binding displaced (A1 adenosine receptors; Table 2, at 10^−4 M): 18 ± 1% (10^−4)
13 | CCCOC(=O)c1c(C)nc(-c2ccccc2)c(C(=O)OCC)c1C [Compound 34, 3-Propyl 5-ethyl 2,4-dimethyl-6-phenylpyridine-3,5-dicarboxylate] | – | – | – | 24.5 ± 8.5 | 0.215 ± 0.022 | 23 | 5.05 ± 0.54 | –

Continued by falling Ki (human A3 receptors; Table 2, compounds 33-58), values first:

Row | Ki (rat A3 receptors; [1]) [µM] | rA3/hA3 (rat A3 receptors; Table 4) | rA1/rA3 (rat A3 receptors; Table 4) | Ki (A2A adenosine receptors; Table 2, compounds 33-58) [µM] | Ki (human A3 receptors; Table 2, compounds 33-58) [µM] | rA1/hA3 (human A3 receptors; Table 2) | Ki (A1 adenosine receptors; Table 2, compounds 33-58) [µM] | SMILES | also measured
14 | – | – | – | 22.9 ± 5 | 3.85 ± 0.79 | 15 | 56.2 ± 20.8 | CCOC(=O)c1c(C)nc(C2CCCC2)c(C(=O)OCc2ccccc2)c1C#Cc1ccccc1 [Compound 45, 3-Ethyl 5-benzyl 2-methyl-4-phenylethynyl-6-cyclopentylpyridine-3,5-dicarboxylate] | –
15 | – | – | – | 27.6 ± 12 | 2.41 ± 0.59 | – | – | CCOC(=O)c1c(C)nc(C2CCC2)c(C(=O)OCc2ccccc2)c1C#Cc1ccccc1 [Compound 44, 3-Ethyl 5-benzyl 2-methyl-4-phenylethynyl-6-cyclobutylpyridine-3,5-dicarboxylate] | rA1 displacement of specific binding (class d) (A1 adenosine receptors; Table 2, at 10^−4 M): d (10^−4) (Displacement of <10% of specific binding at the indicated concentration (M).)
16 | – | – | – | 3.69 ± 1.25 | 0.176 ± 0.038 | 19 | 3.36 ± 0.6 | CCOC(=O)c1c(C)nc(-c2ccccc2)c(C(=O)OCC)c1CC [Compound 35, 3,5-Diethyl 2-methyl-4-ethyl-6-phenylpyridine-3,5-dicarboxylate] | –
17 | 2.26 ± 0.05 | 64 | 18 | – | 0.035 ± 0.0091 | 1200 | 40.3 ± 7.4 | CCCCc1nc(-c2ccccc2)c(C(=O)OCC)c(CC)c1C(=O)SCC [Compound 57, 5-Ethyl 2-butyl-4-ethyl-3-(ethylsulfanylcarbonyl)-6-phenylpyridine-5-carboxylate] | rA2A displacement of specific binding (class d) (A2A adenosine receptors): d (10^−4) (Displacement of <10% of specific binding at the indicated concentration (M).)
18 | 0.113 ± 0.012 | 6.0 | 140 | – | 0.0245 ± 0.004 | 7400 | 18.2 ± 9 | CCCOC(=O)c1c(-c2ccccc2)nc(CC)c(C(=O)SCC)c1CCC [Compound 49b, 5-Propyl 2-ethyl-4-propyl-3-(ethylsulfanylcarbonyl)-6-phenylpyridine-5-carboxylate] | affinity at rat and human A3 receptors (in words) (rat A3 receptors; both species): high affinity at both species; rA2A displacement of specific binding (class d) (A2A adenosine receptors): d (10^−4) (Displacement of <10% of specific binding at the indicated concentration (M).)
19 | 0.41 ± 0.048 | 21 | >100 | 6.13 ± 1.28 | 0.02 ± 0.0019 | >3000 | – | CCOC(=O)c1c(-c2ccccc2)nc(CC)c(C(=O)SCC)c1CC [Compound 48, 5-Ethyl 2,4-diethyl-3-(ethylsulfanylcarbonyl)-6-phenylpyridine-5-carboxylate] | rA1 percentage of specific binding displaced (A1 adenosine receptors; Table 2, at 10^−4 M): 41 ± 6% (10^−4)
20 | 0.44 ± 0.033 | 33 | 19 | 8.91 ± 0.97 | 0.0134 ± 0.0015 | 610 | 8.2 ± 2.96 | CCOC(=O)c1c(-c2cccc(Cl)c2)nc(CC)c(C(=O)SCC)c1CC [Compound 51, 5-Ethyl 2,4-diethyl-3-(ethylsulfanylcarbonyl)-6-(m-chlorophenyl)pyridine-5-carboxylate] | –
